Measured values: ChEMBL document CHEMBL3745631, “Discovery of highly potent and selective Bruton's tyrosine kinase inhibitors: Pyridazinone analogs with improved metabolic stability” (Bioorg Med Chem Lett, 2016)

These compounds were tested against Tyrosine-protein kinase BTK (Homo sapiens, UniProt Q06187) (assay: Inhibition of BTK (unknown origin) by Lanthascreen assay).
Chain of Tyrosine-protein kinase BTK (Homo sapiens, UniProt Q06187) (Q06187 whole entry): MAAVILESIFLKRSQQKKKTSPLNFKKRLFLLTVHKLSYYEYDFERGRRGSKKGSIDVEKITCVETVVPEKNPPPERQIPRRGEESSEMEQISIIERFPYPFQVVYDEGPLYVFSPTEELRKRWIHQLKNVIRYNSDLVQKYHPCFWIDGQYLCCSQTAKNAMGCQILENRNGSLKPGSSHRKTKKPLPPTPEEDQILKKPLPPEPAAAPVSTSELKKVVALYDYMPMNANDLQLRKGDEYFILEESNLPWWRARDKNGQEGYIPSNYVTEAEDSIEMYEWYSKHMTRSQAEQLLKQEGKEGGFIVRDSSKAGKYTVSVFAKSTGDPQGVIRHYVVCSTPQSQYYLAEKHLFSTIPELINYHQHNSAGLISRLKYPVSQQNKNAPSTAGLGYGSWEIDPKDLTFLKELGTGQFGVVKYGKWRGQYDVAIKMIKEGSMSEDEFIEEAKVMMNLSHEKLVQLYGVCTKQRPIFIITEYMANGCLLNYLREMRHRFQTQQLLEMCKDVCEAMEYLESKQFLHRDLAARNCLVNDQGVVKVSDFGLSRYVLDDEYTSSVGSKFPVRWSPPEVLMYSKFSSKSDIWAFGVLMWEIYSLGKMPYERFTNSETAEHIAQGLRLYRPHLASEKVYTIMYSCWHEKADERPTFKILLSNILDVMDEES

IC50 [nM]	Structure (SMILES)
4	Cc1c(-c2cc(Nc3cc4n(n3)CCN(C)C4)c(=O)[nH]n2)ccc(F)c1NC(=O)c1cnc(C(C)(C)C)cn1
11	Cc1ccc(-c2cc(Nc3cc4n(n3)CCN(C)C4)c(=O)[nH]n2)c(F)c1NC(=O)c1cc2ccccc2s1
4	Cc1c(-c2cc(Nc3cc4n(n3)CCN(C)C4)c(=O)[nH]n2)ccc(F)c1NC(=O)c1ccc(C(C)(C)C)cc1

Each compound was assayed against Tyrosine-protein kinase BTK (Mus musculus, UniProt P35991) (assay: Inhibition of BTK in Balb/c mouse B cells assessed as inhibition of anti-IgM-stimulated CD86 expression by flow cytometry).
Chain of Tyrosine-protein kinase BTK (Mus musculus, UniProt P35991) (P35991 whole entry): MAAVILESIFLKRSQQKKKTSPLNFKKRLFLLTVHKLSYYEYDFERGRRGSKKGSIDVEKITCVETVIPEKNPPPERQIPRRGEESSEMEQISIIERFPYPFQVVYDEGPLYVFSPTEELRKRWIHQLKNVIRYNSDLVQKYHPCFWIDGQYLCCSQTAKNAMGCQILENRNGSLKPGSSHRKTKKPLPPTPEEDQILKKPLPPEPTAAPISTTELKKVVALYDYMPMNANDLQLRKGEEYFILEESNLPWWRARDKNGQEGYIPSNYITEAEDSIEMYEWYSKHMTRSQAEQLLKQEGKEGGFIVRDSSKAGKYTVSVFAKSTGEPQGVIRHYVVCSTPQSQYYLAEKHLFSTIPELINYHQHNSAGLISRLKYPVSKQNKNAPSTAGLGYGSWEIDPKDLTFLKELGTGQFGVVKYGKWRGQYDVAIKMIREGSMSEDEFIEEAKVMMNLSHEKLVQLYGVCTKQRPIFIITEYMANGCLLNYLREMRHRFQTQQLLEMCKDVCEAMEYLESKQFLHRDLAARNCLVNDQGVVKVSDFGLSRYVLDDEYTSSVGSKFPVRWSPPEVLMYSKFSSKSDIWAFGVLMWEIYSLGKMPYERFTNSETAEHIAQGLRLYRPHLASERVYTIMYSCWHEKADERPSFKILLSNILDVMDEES
Format: cell-based

IC50 [nM]	Structure (SMILES)
90	Cc1c(-c2cc(Nc3cc4n(n3)CCN(C)C4)c(=O)[nH]n2)ccc(F)c1NC(=O)c1cnc(C(C)(C)C)cn1
200	Cc1ccc(-c2cc(Nc3cc4n(n3)CCN(C)C4)c(=O)[nH]n2)c(F)c1NC(=O)c1cc2ccccc2s1
41	Cc1c(NC(=O)c2cc3ccccc3s2)cccc1-c1cc(Nc2cc3n(n2)CCN(C)C3)c(=O)[nH]n1
50	CN1CCn2nc(Nc3cc(-c4ccc(F)c(NC(=O)c5cc6ccccc6s5)c4)n[nH]c3=O)cc2C1
54	Cc1c(-c2cc(Nc3cc4n(n3)CCN(C)C4)c(=O)[nH]n2)ccc(F)c1NC(=O)c1ccc(C(C)(C)C)cc1
18	CN1CCn2nc(Nc3cc(-c4ccc(F)c(NC(=O)c5cc6ccccc6s5)c4F)n[nH]c3=O)cc2C1
680	Cc1c(-c2cc(Nc3cc4n(n3)CCN(C)C4)c(=O)[nH]n2)ccc(F)c1NC(=O)c1cc2ncccc2s1
740	Cc1c(-c2cc(Nc3cc4n(n3)CCN(C)C4)c(=O)[nH]n2)ccc(F)c1NC(=O)c1cc2cccnc2s1
387	Cc1ccc(-c2cc(Nc3cc4n(n3)CCN(C)C4)c(=O)[nH]n2)c(C)c1NC(=O)c1cc2ccccc2s1

The compounds below were run on Liver microsome (assay: Intrinsic clearance in human liver microsomes at 1 uM by LC-MS/MS analysis in absence of NADPH).
Format: ADME

Structure (SMILES)	CLH [mL/min/kg]
Cc1ccc(-c2cn(C)c(=O)c(Nc3ccc(C4C(=O)N(C)CCN4C)cc3)n2)c(C)c1NC(=O)c1cc2c(s1)CCCC2 (racemic)	< 6
Cc1c(-c2cc(Nc3cc4n(n3)CCN(C)C4)c(=O)[nH]n2)ccc(F)c1NC(=O)c1cnc(C(C)(C)C)cn1	6
Cc1ccc(-c2cc(Nc3cc4n(n3)CCN(C)C4)c(=O)[nH]n2)c(F)c1NC(=O)c1cc2ccccc2s1	6
Cc1c(NC(=O)c2cc3ccccc3s2)cccc1-c1cc(Nc2cc3n(n2)CCN(C)C3)c(=O)[nH]n1	> 15
CN1CCn2nc(Nc3cc(-c4ccc(F)c(NC(=O)c5cc6ccccc6s5)c4)n[nH]c3=O)cc2C1	< 6
Cc1c(-c2cc(Nc3cc4n(n3)CCN(C)C4)c(=O)[nH]n2)ccc(F)c1NC(=O)c1ccc(C(C)(C)C)cc1	6
Cc1c(-c2cn(C)c(=O)c(Nc3ccc(C4C(=O)N(C)CCN4C)cc3)n2)ccc(F)c1NC(=O)c1cc2c(s1)CCCC2 (stereo in doubt; 14)	< 6
Cc1c(-c2cc(Nc3cc4n(n3)CCN(C)C4)c(=O)[nH]n2)ccc(F)c1NC(=O)c1cc2ncccc2s1	6
Cc1c(-c2cc(Nc3cc4n(n3)CCN(C)C4)c(=O)[nH]n2)ccc(F)c1NC(=O)c1cc2cccnc2s1	6
Cc1c(NC(=O)c2cc3c(s2)CCCC3)cccc1-c1cn(C)c(=O)c(Nc2ccc([C@@H]3C(=O)N(C)CCN3C)cc2)n1	> 15
Cc1ccc(-c2cc(Nc3cc4n(n3)CCN(C)C4)c(=O)[nH]n2)c(C)c1NC(=O)c1cc2ccccc2s1	< 6

Second part, the compound after the results:

CLH [mL/min/kg]	Structure (SMILES)
> 15	CN1CCN(C)C(c2ccc(Nc3nc(-c4cccc(NC(=O)c5cc6c(s5)CCCC6)c4F)cn(C)c3=O)cc2)C1=O (racemic)
6	CN1CCN(C)C(c2ccc(Nc3nc(-c4ccc(F)c(NC(=O)c5cc6c(s5)CCCC6)c4)cn(C)c3=O)cc2)C1=O (stereo in doubt; 8)
< 6	CN1CCN(C)C(c2ccc(Nc3nc(-c4ccc(C#N)c(NC(=O)c5cc6c(s5)CCCC6)c4)cn(C)c3=O)cc2)C1=O (racemic)
< 6	CN1CCN(C)C(c2ccc(Nc3nc(-c4ccc(Cl)c(NC(=O)c5cc6c(s5)CCCC6)c4F)cn(C)c3=O)cc2)C1=O (configuration not stated)
< 6	Cc1ccc(-c2cn(C)c(=O)c(Nc3ccc([C@@H]4C(=O)N(C)CCN4C)cc3)n2)c(F)c1NC(=O)c1cc2c(s1)CCCC2
6	CN1CCN(C)C(c2ccc(Nc3nc(-c4ccc(Cl)c(NC(=O)c5cc6c(s5)CCCC6)c4Cl)cn(C)c3=O)cc2)C1=O (racemic)
6	Cc1c(-c2cn(C)c(=O)c(Nc3ccc(C4C(=O)N(C)CCN4C)cc3)n2)ccc(F)c1NC(=O)c1cc2c(s1)CCCC2 (stereo in doubt; 13)
> 15	CN1CCN(C)C(c2ccc(Nc3nc(-c4cccc(NC(=O)c5cc6c(s5)CCCC6)c4Cl)cn(C)c3=O)cc2)C1=O (racemic)
6	CN1CCN(C)C(c2ccc(Nc3nc(-c4ccc(Cl)c(NC(=O)c5cc6c(s5)CCCC6)c4)cn(C)c3=O)cc2)C1=O (racemic)
6	CN1CCN(C)C(c2ccc(Nc3nc(-c4ccc(F)c(NC(=O)c5cc6c(s5)CCCC6)c4F)cn(C)c3=O)cc2)C1=O (configuration not stated)
< 6	CN1CCN(C)C(c2ccc(Nc3nc(-c4ccc(F)c(NC(=O)c5cc6c(s5)CCCC6)c4)cn(C)c3=O)cc2)C1=O (stereo in doubt; 7)
> 15	CN1CCN(C)C(c2ccc(Nc3nc(-c4cccc(NC(=O)c5cc6c(s5)CCCC6)c4)cn(C)c3=O)cc2)C1=O (racemic)
6	Cc1c(-c2cn(C)c(=O)c(Nc3ccc(C4C(=O)N(C)CCN4C)cc3)n2)ccc(Cl)c1NC(=O)c1cc2c(s1)CCCC2 (racemic)
< 6	Cc1ccc(-c2cn(C)c(=O)c(Nc3ccc(C4C(=O)N(C)CCN4C)cc3)n2)c(Cl)c1NC(=O)c1cc2c(s1)CCCC2 (configuration not stated)
< 6	Cc1ccc(-c2cn(C)c(=O)c(Nc3ccc([C@H]4C(=O)N(C)CCN4C)cc3)n2)c(F)c1NC(=O)c1cc2c(s1)CCCC2

These compounds were tested on Liver microsome (assay: Intrinsic clearance in human liver microsomes at 1 uM by LC-MS/MS analysis in presence of NADPH).
Format: ADME

CLH [mL/min/kg]	Structure (SMILES)
6	Cc1c(-c2cc(Nc3cc4n(n3)CCN(C)C4)c(=O)[nH]n2)ccc(F)c1NC(=O)c1cnc(C(C)(C)C)cn1
6	Cc1ccc(-c2cc(Nc3cc4n(n3)CCN(C)C4)c(=O)[nH]n2)c(F)c1NC(=O)c1cc2ccccc2s1
> 15	Cc1c(NC(=O)c2cc3ccccc3s2)cccc1-c1cc(Nc2cc3n(n2)CCN(C)C3)c(=O)[nH]n1
> 15	CN1CCn2nc(Nc3cc(-c4ccc(F)c(NC(=O)c5cc6ccccc6s5)c4)n[nH]c3=O)cc2C1
> 15	Cc1c(-c2cc(Nc3cc4n(n3)CCN(C)C4)c(=O)[nH]n2)ccc(F)c1NC(=O)c1ccc(C(C)(C)C)cc1
> 15	CN1CCn2nc(Nc3cc(-c4ccc(F)c(NC(=O)c5cc6ccccc6s5)c4F)n[nH]c3=O)cc2C1
6	Cc1c(-c2cc(Nc3cc4n(n3)CCN(C)C4)c(=O)[nH]n2)ccc(F)c1NC(=O)c1cc2ncccc2s1
6	Cc1c(-c2cc(Nc3cc4n(n3)CCN(C)C4)c(=O)[nH]n2)ccc(F)c1NC(=O)c1cc2cccnc2s1
> 15	Cc1ccc(-c2cc(Nc3cc4n(n3)CCN(C)C4)c(=O)[nH]n2)c(C)c1NC(=O)c1cc2ccccc2s1

Each compound was assayed on Hepatocyte (assay: Intrinsic clearance in human hepatocytes at 1 uM by LC-MS/MS analysis).
Format: ADME, cell-based

CLH [mL/min/kg]	Structure (SMILES)
6	Cc1c(-c2cc(Nc3cc4n(n3)CCN(C)C4)c(=O)[nH]n2)ccc(F)c1NC(=O)c1cnc(C(C)(C)C)cn1
> 15	CN1CCn2nc(Nc3cc(-c4ccc(F)c(NC(=O)c5cc6ccccc6s5)c4)n[nH]c3=O)cc2C1
6	Cc1c(-c2cc(Nc3cc4n(n3)CCN(C)C4)c(=O)[nH]n2)ccc(F)c1NC(=O)c1ccc(C(C)(C)C)cc1
6	CN1CCn2nc(Nc3cc(-c4ccc(F)c(NC(=O)c5cc6ccccc6s5)c4F)n[nH]c3=O)cc2C1
6	Cc1c(-c2cc(Nc3cc4n(n3)CCN(C)C4)c(=O)[nH]n2)ccc(F)c1NC(=O)c1cc2ncccc2s1
